A word on the EC50: it is the concentration giving half of the maximal effect. The IC50 is the midpoint of a concentration-inhibition curve.

The values below come from patent US6867185B2 (Bristol-Myers Squibb Company, priority 2001, dated 2005).

Like-named read-outs stand apart in the source and are kept apart here.

The test system of assay [1] is HCV replicon in Huh7 cells. Nature of the assay: HCV replicon cell-based assay (replicon FRET assay). Particulars: EC50 ranges. Further details: species or system HCV strain 1B. From the text:
An HCV replicon whole cell system was established as described by Lohmann V, Korner F, Koch J, Herian U, Theilmann L, Bartenschlager R., Science 285 (5424):110-3 (1999). This system enabled us to evaluate the effects of our HCV Protease compounds on HCV RNA replication. Briefly, using the HCV strain 1B sequence described in the Lohmann paper (Assession number:AJ238799), an HCV cDNA was generated encoding the 5′ internal ribosome entry site (IRES), the neomycin resistance gene, the EMCV (encephalomyocarditis viurs)-IRES and the HCV nonstructural proteins, NS3-NS5B, and 3′ non-translated region (NTR). In vitro transcripts of the cDNA were transfected into the human hepatoma cell line, Huh7. […] Resulting cell lines were characterized for positive and negative strand RNA production and protein production over time.
Huh7 cells, constitutively expressing the HCV replicon, were grown in Dulbecco's Modified Eagle Media (DMEM) containing 10% Fetal calf serum (FCS) and 1 mg/ml G418 (Gibco-BRL). Cells were seeded the night before (1.5×10^4 cells/well) in 96-well tissue-culture sterile plates. Compound and no compound controls were prepared in DMEM containing 4% FCS, 1:100 Penicillin/Streptomysin, 1:100 L-glutamine and 5% DMSO in the dilution plate (0.5% DMSO final concentration in the assay). Compound/DMSO mixes were added to the cells and incubated for 4 days at 37° C. After 4 days, plates were rinsed thoroughly with Phosphate-Buffered Saline (PBS) (3 times 150 μl). The cells were lysed with 25 μl of a lysis assay reagent containing the FRET peptide (RET S1, as described for the in vitro enzyme assay). The lysis assay reagent was made from 5× cell Luciferase cell culture lysis reagent(Promega #E153A) diluted to 1× with distilled water, NaCl added to 150 mM final, the FRET peptide diluted to 10 μM final from a 2 mM stock in 100% DMSO. The plate was then placed into the Cytofluor 4000 instrument which had been set to 340 nm excitation/490 emission, automatic mode for 21 cycles and the plate read in a kinetic mode. EC50 determinations were carried out as described for the IC50 determinations.
(Replicon systems follow genome replication, usually without infectious particles.)

In assay [2] the target is T1, HCV NS3/4A protease complex, BMS strain (genotype 1a) (Hepatitis C virus genotype 1a, UniProt P27958, C1454S/C1711G).
T1 construct: recombinant HCV NS3/4A protease complex (amino'acids 1027 to 1711); inferred from the pET21b vector and Ni-NTA purification; made in house; host or cells: Escherichia coli BL21 (DE3), pET21b
T1 sequence (P27958 1027-1711 C1454S/C1711G, one chain of several): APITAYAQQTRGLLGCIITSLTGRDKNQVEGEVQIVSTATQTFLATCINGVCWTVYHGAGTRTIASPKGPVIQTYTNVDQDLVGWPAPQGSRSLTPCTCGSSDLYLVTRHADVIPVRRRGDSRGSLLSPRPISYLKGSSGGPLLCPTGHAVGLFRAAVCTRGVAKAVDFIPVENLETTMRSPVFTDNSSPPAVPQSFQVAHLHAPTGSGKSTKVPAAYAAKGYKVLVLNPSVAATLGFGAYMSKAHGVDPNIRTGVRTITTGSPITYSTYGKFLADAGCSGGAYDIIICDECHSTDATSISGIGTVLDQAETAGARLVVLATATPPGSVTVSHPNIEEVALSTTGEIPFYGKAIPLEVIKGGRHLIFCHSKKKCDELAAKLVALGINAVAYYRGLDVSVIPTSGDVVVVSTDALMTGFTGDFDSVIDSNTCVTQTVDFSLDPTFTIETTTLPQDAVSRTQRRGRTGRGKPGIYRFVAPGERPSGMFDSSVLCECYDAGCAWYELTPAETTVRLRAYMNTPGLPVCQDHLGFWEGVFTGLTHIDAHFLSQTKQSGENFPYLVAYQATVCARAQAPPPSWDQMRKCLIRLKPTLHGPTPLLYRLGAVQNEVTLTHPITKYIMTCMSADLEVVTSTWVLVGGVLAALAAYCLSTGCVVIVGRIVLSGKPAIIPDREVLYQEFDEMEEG
Nature of the assay: Recombinant HCV NS3/4A protease complex FRET peptide assay (BMS strain). The assay is classed as biochemical. The conditions noted are these: IC50 ranges. From the text:
The purpose of this in vitro assay was to measure the inhibition of HCV NS3 protease complexes, derived from the BMS, H77C or J4L6S strains, as described below, by compounds of the present invention. This assay provides an indication of how effective compounds of the present invention would be in inhibiting HCV proteolytic activity.
Serum from an HCV-infected patient was obtained from Dr. T. Wright, San Francisco Hospital. An engineered full-length cDNA (compliment deoxyribonucleic acid) template of the HCV genome (BMS strain) was constructed from DNA fragments obtained by reverse transcription-PCR (RT-PCR) of serum RNA (ribonucleic acid) and using primers selected on the basis of homology between other genotype 1a strains. From the determination of the entire genome sequence, a genotype 1a was assigned to the HCV isolate according to the classification of Simmonds et al. (See P Simmonds, K A Rose, S Graham, S W Chan, F McOmish, B C Dow, E A Follett, P L Yap and H Marsden, J. Clin. Microbiol., 31 (6), 1493-1503 (1993)). […] The infectious clones, H77C (1a genotype) and J4L6S (1b genotype) were obtained from R. Purcell (N1H) and the sequences are published in Genbank (AAB67036, see Yanagi, M., Purcell, R. H., Emerson, S. U. and Bukh, J. Proc. Natl. Acad. Sci. U.S.A. 94 (16), 8738-8743 (1997); AF054247, see Yanagi, M., St Claire, M., Shapiro, M., Emerson, S. U., Purcell, R. H. and Bukh, J, Virology 244 (1), 161-172. (1998)).
The BMS, H77C and J4L6S strains were used for production of recombinant NS3/4A protease complexes. DNA encoding the recombinant HCV NS3/4A protease complex (amino'acids 1027 to 1711) for these strains were manipulated as described by P. Gallinari et al. (see Gallinari P, Paolini C, Brennan D, Nardi C, Steinkuhler C, De Francesco R. Biochemistry. 38 (17):5620-32, (1999)). Briefly, a three-lysine solubilizing tail was added at the 3′-end of the NS4A coding region. The cysteine in the P1 position of the NS4A-NS4B cleavage site (amino acid 1711) was changed to a glycine to avoid the proteolytic cleavage of the lysine tag. Furthermore, a cysteine to serine mutation was introduced by PCR at amino acid position 1454 to prevent the autolytic cleavage in the NS3 helicase domain. The variant DNA fragment was cloned in the pET21b bacterial expression vector (Novagen)and the NS3/4A complex was expressed in Escherichia. coli strain BL21 (DE3) (Invitrogen) following the protocol described by P. Gallinari et al. (see Gallinari P, Brennan D, Nardi C, Brunetti M, Tomei L, Steinkuhler C, De Francesco R., J. Virol. 72 (8):6758-69 (1998)) with modifications. Briefly, NS3/4A expression was induced with 0.5 mM Isopropyl β-D-1-thiogalactopyranoside (IPTG) for 22 hr at 20° C. A typical fermentation (10L) yielded approximately 80 g of wet cell paste. The cells were resuspended in lysis buffer (10 mL/g) consisting of 25 mM N-(2-Hydroxyethyl)Piperazine-N′-(2-Ethane Sulfonic acid) (HEPES), pH 7.5, 20% glycerol, 500 mM Sodium Chloride (NaCl), 0.5% Triton-X100, 1 ug/ml lysozyme, 5 mM Magnesium Chloride (MgCl2), 1 ug/ml Dnasel, 5 mM β-Mercaptoethanol (OME), Protease inhibitor-Ethylenediamine Tetraacetic acid (EDTA) free (Roche), homogenized and incubated for 20 mins at 4° C. The homogenate was sonicated and clarified by ultra-centrifugation at 235000 g for 1 hr at 4° C. Imidazole was added to the supernatant to a final concentration of 15 mM and the pH adjusted to 8.0. The crude protein extract was loaded on a Nickel-Nitrilotriacetic acid (Ni-NTA) column pre-equilibrated with buffer B (25 mM HEPES, pH 8.0, 20% glycerol, 500 mM NaCl, 0.5% Triton-X100, 15 mM imidazole, 5 mM βME). The sample was loaded at a flow rate of 1 mL/min. The column was washed with 15 column volumes of buffer C (same as buffer B except with 0.2% Triton-X100). The protein was eluted with 5 column volumes of buffer D (same as buffer C except with 200 mM Imidazole). […]

The mark [3] stands for this setting: Hepatitis C virus, Huh-7, HCV replicon cell assay.
Setting [4] is: IC50, HCV NS3/4A protease FRET assay in vitro.

On to `COc1ccc2c(O[C@@H]3C[C@H]4C(=O)N[C@]5(C(=O)NS(=O)(=O)C6CC6)C[C@H]5/C=C\CCCCC[C@H](NC(=O)OC(C)(C)C)C(=O)N4C3)cc(-c3ccccc3)nc2c1` [Compound 9, (1S,4R,6S,14S,18R)-7-cis-[4-Cyclopropanesulfonylamino-carbonyl-18-(7-methoxy-2-phenylquinolin-4-yloxy)-2,15-dioxo-3,16-diazatricyclo[14.3.0.0^4,6]nonadec-7-en-14-yl]carbamic acid tert-butyl ester], for which the EC50 in assay [1] (setting [3]) was < 50 nM. Further, in assay [2] (setting [4]), the IC50 was < 50 nM.

`COc1ccc2c(O[C@@H]3C[C@H]4C(=O)N[C@]5(C(=O)NS(=O)(=O)C6CC6)CC5CCCCCC[C@H](NC(=O)CC5CC5)C(=O)N4C3)cc(-c3ccccc3)nc2c1` (stereo partly drawn) [Compound 24, (1S,4R,6R,14S,17R)-N-[4-Cyclopropanesulfonylaminocarbonyl-17-(7-methoxy-2-phenylquinolin-4-yloxy)-2,14-dioxo-3,15-diazatricyclo[13.3.0.0^4,6]-octadec-13-yl]-2-cyclopropylacetamide]: the EC50 in assay [1] (setting [3]) was < 50 nM. Besides, the half-maximal inhibitory concentration (IC50) in assay [2] (setting [4]) is < 50 nM.

With `COc1ccc2c(O[C@@H]3C[C@H]4C(=O)N[C@]5(C(=O)NS(=O)(=O)C6CC6)C[C@H]5CCCCCCC[C@H](NC(=O)OC(C)(C)C)C(=O)N4C3)cc(-c3ccccc3)nc2c1` [Compound 15, (1S,4R,6R,14S,18R)-[4-Cyclopropanesulfonylaminocarbonyl-18-(7-methoxy-2-phenylquinolin-4-yloxy)-2,15-dioxo-3,16-diazatricyclo-[14.3.0.0^4,6]nonadec-14-yl]carbamic acid tert-butyl ester], the concentration for a half-maximal effect (EC50) in assay [1] (setting [3]) is < 50 nM. The IC50 in assay [2] (setting [4]) is < 50 nM.

For the compound `COc1ccc2c(O[C@@H]3C[C@H]4C(=O)N[C@]5(C(=O)NS(=O)(=O)C6CCC6)C[C@H]5/C=C\CCCC[C@H](NC(=O)OC(C)(C)C)C(=O)N4C3)cc(-c3ccccc3)nc2c1` [Compound 17, (1S,4R,6S,13S,17R)-7-cis-[4-Cyclobutanesulfonylaminocarbonyl-17-(7-methoxy-2-phenylquinolin-4-yloxy)-2,14-dioxo-3,15-diazatricyclo[13.3.0.0^4,6]octadec-7-en-13-yl]carbamic acid tert-butyl ester], the EC50 in assay [1] (setting [3]) was < 500 nM. The IC50 in assay [2] (setting [4]) was < 50 nM.

In the case of `COc1ccc2c(O[C@@H]3C[C@H]4C(=O)N[C@]5(C(=O)NS(=O)(=O)C6CCC6)CC5CCCCCC[C@H](NC(=O)OC(C)(C)C)C(=O)N4C3)cc(-c3ccccc3)nc2c1` (stereo partly drawn) [Compound 18, (1S,4R,6R,13S,17R)-[4-Cyclobutanesulfonylaminocarbonyl-17-(7-methoxy-2-phenylquinolin-4-yloxy)-2,14-dioxo-3,15-diazatricyclo[13.3.0.0^4,6]octa-dec-13-yl]carbamic acid tert-butyl ester], the EC50 in assay [1] (setting [3]) is < 50 nM. Besides, the half-maximal inhibitory concentration (IC50) in assay [2] (setting [4]) is < 50 nM.

Regarding `COc1ccc2c(O[C@@H]3C[C@H]4C(=O)N[C@]5(C(=O)NS(=O)(=O)C6CC6)C[C@H]5/C=C\CCCCC[C@H](NC(=O)OC(C)(C)C)C(=O)N4C3)cc(-c3ccccc3)nc2c1` (relative stereo) [Compound 11, (1S,4R,6S,13S,18R)-7-cis-[4-Cyclopropanesulfonyl-aminocarbonyl-18-(7-methoxy-2-phenylquinolin-4-yloxy)-2,15-dioxo-3,16-diazatricyclo-[14.3.0.0^4,6]nona-dec-7-en-14-yl]carbamic acid tert-butyl ester], in assay [1] (HCV replicon cell assay, read-out: EC50), the half-maximal effective concentration (EC50) was < 50 nM. In addition, in assay [2] (HCV NS3/4A protease FRET assay in vitro, read-out: IC50), the IC50 is < 50 nM.

With `COc1ccc2c(O[C@@H]3C[C@H]4C(=O)N[C@]5(C(=O)NS(=O)(=O)C6CC6)C[C@H]5/C=C\CCCCC[C@H](NC(=O)OC(C)(C)C)C(=O)N4C3)cc(-c3csc(C(C)C)n3)nc2c1` [Compound 27], the concentration for a half-maximal effect (EC50) in assay [1] (setting [3]) was < 50 nM. In addition, the IC50 in assay [2] (setting [4]) is < 50 nM.

In the case of `COc1ccc2c(O[C@@H]3C[C@H]4C(=O)N[C@]5(C(=O)NS(=O)(=O)C6CC6)CC5CCCCCC[C@H](NC(=O)OC5CCCC5)C(=O)N4C3)cc(-c3ccccc3)nc2c1` (stereo partly drawn) [Compound 25, (1S,4R,6R,14S,17R)-[4-Cyclopropanesulfonylaminocarbonyl-17-(7-methoxy-2-phenylquinolin-4-yloxy)-2,14-dioxo-3,15-diazatricyclo[13.3.0.0^4,6]octa-dec-13-yl]carbamic acid cyclopentyl ester], in assay [1] (setting [3]), the EC50 is < 50 nM. Further, the 50% inhibitory concentration (IC50) in assay [2] (setting [4]) was < 50 nM.

Take `CC(C)(C)OC(=O)N[C@H]1CCCCC/C=C\[C@@H]2C[C@@]2(C(=O)NS(C)(=O)=O)NC(=O)[C@@H]2C[C@@H](Oc3ccnc4ccccc34)CN2C1=O` [Compound 30, (1S,4R,6S,14S,18R)-7-cis-[4-Methanesulfonylaminocarbonyl-2,15-dioxo-18-(quinolin-4-yloxy)-3,16-diazatricyclo[14.3.0.0^4,6]nonadec-7-en-14-yl]-carbamic acid tert-butyl ester]: in assay [1] (setting [3]), the EC50 was < 5000 nM. Also, the concentration for half-maximal inhibition (IC50) in assay [2] (setting [4]) was < 50 nM.

For `COc1ccc2c(O[C@@H]3C[C@H]4C(=O)N[C@]5(C(=O)NS(=O)(=O)C6CC6)CC5/C=C\CCCCC[C@H](NC(=O)NC(C)(C)C)C(=O)N4C3)cc(-c3ccccc3)nc2c1` (stereo partly drawn) [Compound 20, (1S,4R,6S,14S,18R)-7-cis-Cyclopropanesulfonic acid [14-(3-tert-butylureido)-18-(7-methoxy-2-phenyl-quinolin-4-yloxy)-2,15-dioxo-3,16-diazatricyclo[14.3.0.0^4,6]nona-dec-7-ene-4-carbonyl]amide], the half-maximal effective concentration (EC50) in assay [1] (setting [3]) was < 50 nM. Besides, in assay [2] (setting [4]), the concentration for half-maximal inhibition (IC50) was < 50 nM.
